Results taken from patent US20210015819A1, “METHODS FOR TREATMENT OF CANCERS WITH EGFR ACTIVATING MUTATIONS” (Board of Regents, The University of Texas System, priority 2018, published 2021).
Read-outs that look alike come from different tables or passages of the source.

System: YUL0019 PR8 cells
Test: Drug sensitivity of poziotinib resistant YUL0019 cells (FIG. 8)
Format: cell-based

CC[C@@H]1C(=O)N(C)c2cnc(Nc3ccc(C(=O)N[C@H]4CC[C@H](N5CCN(CC6CC6)CC5)CC4)cc3OC)nc2N1C(C)C [BI6727 (Volasertib)]
Sensitivity of YUL0019 PR8 (poziotinib resistant) cells: highly sensitive

COc1cc(Nc2ncc3c(n2)-c2ccc(Cl)cc2C(c2c(F)cccc2OC)=NC3)ccc1C(=O)O [MLN8237 (Alisertib)]
Sensitivity of YUL0019 PR8 (poziotinib resistant) cells (listed as Alisertib): sensitive
Sensitivity of YUL0019 PR8 (poziotinib resistant) cells (listed as alisertib): highly sensitive

C=CC(=O)N1CCC(Oc2cc3c(Nc4ccc(Cl)c(Cl)c4F)ncnc3cc2OC)CC1 [poziotinib, 1-[4-[4-(3,4-dichloro-2-fluoroanilino)-7-methoxyquinazolin-6-yl]oxypiperidin-1-yl]prop-2-en-1-one]
Sensitivity of YUL0019 PR8 (poziotinib resistant) cells: resistant

Cc1csc(-c2nnc(Nc3ccc(Oc4ncccc4-c4ccnc(N)n4)cc3)c3ccccc23)c1 [AMG 900]
Sensitivity of YUL0019 PR8 (poziotinib resistant) cells (listed as AMG900): sensitive
Sensitivity of YUL0019 PR8 (poziotinib resistant) cells (listed as AMG-900): highly sensitive

Cc1ccc(C(=O)N(CCCN)[C@@H](c2nc3cc(Cl)ccc3c(=O)n2Cc2ccccc2)C(C)C)cc1 [Ispinesib]
Sensitivity of YUL0019 PR8 (poziotinib resistant) cells: highly sensitive
Sensitivity of YUL0019 PR8 (poziotinib resistant) cells (listed as ispinasib): sensitive

CN1CC[C@H](c2c(O)cc(O)c3c(=O)cc(-c4ccccc4Cl)oc23)[C@H](O)C1 [Alvocidib]
Sensitivity of YUL0019 PR8 (poziotinib resistant) cells: highly sensitive
